Measured values from patent US12174198B2, “Methods of characterizing condensate-associated characteristics of compounds and uses thereof” (Dewpoint Therapeutics, Inc., priority 2019, dated 2024).
Counter-ions that a name gives are not always drawn.

Legend:
Assay type in all cases: physicochemical
FUS-SNAP condensates [1] = target: T1, FUS-SNAP condensates (Homo sapiens, UniProt P35637); assay: Fluorescence-based assay of compound partitioning compared with the MS assay (Example 4); conditions: condensate volume fraction of 1/1000 used
T1 sequence (P35637 1-526): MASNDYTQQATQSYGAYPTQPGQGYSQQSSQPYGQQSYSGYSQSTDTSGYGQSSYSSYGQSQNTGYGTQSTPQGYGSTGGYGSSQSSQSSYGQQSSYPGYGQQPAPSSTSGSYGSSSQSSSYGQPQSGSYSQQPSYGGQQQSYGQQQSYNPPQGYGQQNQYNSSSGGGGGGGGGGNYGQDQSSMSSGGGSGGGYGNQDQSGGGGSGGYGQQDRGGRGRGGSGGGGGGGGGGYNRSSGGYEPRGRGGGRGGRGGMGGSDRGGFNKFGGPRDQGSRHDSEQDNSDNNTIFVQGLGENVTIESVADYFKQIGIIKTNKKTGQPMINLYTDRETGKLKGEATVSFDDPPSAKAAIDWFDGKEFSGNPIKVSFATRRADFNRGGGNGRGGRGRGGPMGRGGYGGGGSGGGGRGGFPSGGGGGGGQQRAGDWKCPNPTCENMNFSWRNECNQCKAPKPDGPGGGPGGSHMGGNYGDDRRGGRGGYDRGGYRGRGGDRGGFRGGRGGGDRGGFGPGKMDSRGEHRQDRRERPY
Method: The partition characteristics of the test compounds were also determined using the fluorescence-based assay method disclosed in Example 2.
Rhodamine 101 (Rho 101), Rhodamine 800 ([…]), Rhodamine B (Rho B), Rhodamine 123 (Rho 123), and fluorescein were assessed using both the fluorescence-based assay and the mass spectrometry-based assay, as discussed above. […] Using the measurements, a ratio of compound concentration associated with the condensate compared to compound concentration not associated with the condensate was calculated for each compound. A condensate volume fraction of 1/1000 in relation to the outside phase was used.

FUS-SNAP condensates [2] = target: T1, FUS-SNAP condensates; assay: Mass spectrometry-based depletion assay of compound partitioning; conditions: for Partitioning into FUS-condensates at different compound concentrations (fraction of compound in supernatant): FIG. 8, 0.1 μM, 1 μM and 10 μM, N=3 technical repeats; for Partitioning into FUS-condensates at different compound concentrations (fraction of compound in supernatant) / Measured fraction outside of the FUS-SNAP condensates, single compound test reactions versus mixture of four compounds: 0.01 μM; for Measured fraction outside of the FUS-SNAP condensates, single compound test reactions versus mixture of four compounds: FIG. 9A, 9B, 0.1 μM and 1 μM, triplicate; for Identified partitioning into FUS-condensates: as identified before Example 5; for Ratio of compound concentration in versus compound concentration out, MS-based assay: condensate volume fraction of 1/1000 used
Method: Protein Buffer was prepared (50 mM Tris, pH 7.25, 500 mM KCl, 1 mM DTT, and 5% glycerol). The high salt concentration of Protein Buffer prevents phase separation of macromolecules, e.g., proteins, contained therein. 20 μl aliquots of 70 μM FUS-SNAP protein stock solution were prepared in Protein Buffer. The aliquots of FUS-SNAP protein stock solution were frozen and stored prior to use. Dilution Buffer was prepared (14.7 mM Tris, pH 7.25, and 1 mM DTT).
Aliquots of 70 μM FUS-SNAP protein stock solution were thawed at room temperature for about 10 minutes. The aliquots of protein stock solution appeared clear with no visible precipitates. The thawed protein stock solution were filtered using centrifugation filters (Millipore, UFC30VV00). In brief, the aliquots of protein stock solution were added to a centrifugation filed and centrifuged for 1 minutes at 20,000 rcf at room temperature. The flow-through was collected. The protein concentration of the flow-through was measured and a solution of 33.3 μM FUS-SNAP was prepared by diluting the filtered flow-through and Dilution Buffer.
40 μL test reactions were prepared inside a PCR-tube or a PCR-strip (8 wells; AXYGEN™ 8-Strip PCR Tubes, 0.2 mL) using the following: (i) 34 μL Dilution Buffer, with the test compound at a given concentration, and with DMSO to obtain a final DMSO concentration of 1%, and (ii) 6 μL of 33.3 μM FUS-SNAP filtered protein solution. The final concentration of the 40 reactions were 5 μM FUS-SNAP, 75 mM KCl, 20 mM Tris, 0.75% Glycerol, 1 mM DTT, 1% DMSO, and, for the reactions containing a test compound, the desired test compound concentration.
40 μL reference reactions were prepared as described for the test reactions, however, no test compound was added at this stage.
The test reactions and the reference reactions were incubated for 15 minutes at room temperature. It is expected that within the test reactions, condensed high density liquid droplets (mM concentration of protein) of FUS-SNAP protein (condensed phase) are present in an environment of a lower concentrated solution (μM concentration of protein) of FUS-SNAP dilute phase. Test compounds may or may not partition into the condensed phase causing a reduction of the concentration outside (test compound in the dilute phase) and an increase of the concentration inside (test compound in the droplets). The volume of high density liquid droplets is estimated to be at least 1000-fold smaller than the total volume of the reaction, e.g., 20 nL of a condensed phase in a 20 μL reaction.
Following the 15 minute incubation period, the test reactions and reference reactions were processed to separate condensates (the high density liquid droplets) from the supernatant (the dilute phase). Briefly, the test reactions and reference reactions were centrifuged at 10,000 rcf for 10 minutes in a cooled centrifuge at 20° C. When PCR-strips were sued, the rotor used was the Eppendorf F-45-48-5-PCR. 35 μL of the supernatant from each tube was removed and transferred to a new tube being careful not to disturb the pellets, which contained the condensates.
For the reference reactions, a known amount of the test compound was added to the tube containing the supernatant (which contains protein not associated with a condensate), such that the final compound concentration is the same as the initial concentration of the compound in the test reaction. Reference reactions can also be formed by measuring the amount of protein in the supernatant of a test reaction and replicating a supernatant solution based on the obtained information. The known amount of the compound added to the supernatant from the reference reaction was used to calibrate the mass spectrometry signal of the test reaction.
Additionally, the compound was extracted from the test reactions in order to directly measure the amount of compound in the formed condensates. […]

FUS-GFP condensates = target: T2, FUS-GFP condensates (Homo sapiens, UniProt P35637); assay: Co-localization of dye and FUS in FUS-GFP condensates (confocal imaging); conditions: FIG. 6; FUS-GFP channel and Rhodamine 800 channel
T2 sequence (P35637 1-526): T1 sequence (P35637 1-526)
Method: FUS-GFP condensates were prepared as described for FUS-SNAP in Example 2 using Dye 18.
A spinning disk confocal microscope was used to acquire images of the samples. A 60×oil high-NA objective lens was used to capture the condensate droplets. The laser power was set to 20% and the exposure times were adjusted to the fluorescence emission intensity specific for each dye. Exposure times ranged from 1-1000 ms. Appropriate filter settings were used, matching the excitation and emission spectra of the dye and GFP. Control images were taken of condensates containing FUS-GFP with no dye.

| SMILES | Ratio of compound concentration in versus compound concentration out, Fluorescence-based assay (FUS-SNAP condensates [1]) | Identified partitioning into FUS-condensates (FUS-SNAP condensates [2]) | Ratio of compound concentration in versus compound concentration out, MS-based assay (FUS-SNAP condensates [2]) | Co-localization of dye with GFP-labeled FUS in condensates (FUS-GFP condensates) | Partitioning into FUS-condensates at different compound concentrations (fraction of compound in supernatant) (FUS-SNAP condensates [2]) | Measured fraction outside of the FUS-SNAP condensates, single compound test reactions versus mixture of four compounds (FUS-SNAP condensates [2]) |
| --- | --- | --- | --- | --- | --- | --- |
| O=C1OC2(c3ccc(O)cc3Oc3cc(O)ccc32)c2ccccc21 [Dye 6, Fluorescein] | 1 | not partitioning into FUS-condensates | 1-100 | – | does not partition into the FUS-condensates at any of the tested concentrations | in agreement |
| COC(=O)c1ccccc1-c1c2ccc(=N)cc-2oc2cc(N)ccc12.Cl [Dye 14, Rhodamine 123] | 1 | – | 1-100 | – | – | – |
| CCN(CC)c1ccc2c(-c3ccccc3C(=O)O)c3ccc(=[N+](CC)CC)cc-3oc2c1 [Dye 16, Rhodamine B] | 666 | – | 666 | – | – | in agreement |

Continued, in another order:

| Ratio of compound concentration in versus compound concentration out, Fluorescence-based assay (FUS-SNAP condensates [1]) | Identified partitioning into FUS-condensates (FUS-SNAP condensates [2]) | Ratio of compound concentration in versus compound concentration out, MS-based assay (FUS-SNAP condensates [2]) | Co-localization of dye with GFP-labeled FUS in condensates (FUS-GFP condensates) | SMILES | Partitioning into FUS-condensates at different compound concentrations (fraction of compound in supernatant) (FUS-SNAP condensates [2]) | Measured fraction outside of the FUS-SNAP condensates, single compound test reactions versus mixture of four compounds (FUS-SNAP condensates [2]) |
| --- | --- | --- | --- | --- | --- | --- |
| 1,500 | partitioning into FUS-condensates | >8,000 | – | O=C([O-])c1ccccc1C1=c2cc3c4c(c2Oc2c1cc1c5c2CCCN5CCC1)CCC[N+]=4CCC3 [Dye 17, Rhodamine 101 inner salt] | partition into the FUS-condensates at lower compound concentrations | – |
| 1,000 | – | >2,000 | co-localized in the condensates | N#CC1=c2cc3c4c(c2Oc2c1cc1c5c2CCCN5CCC1)CCC[N+]=4CCC3 [Dye 18, Rhodamine 800] | – | – |
